# Laboratory results reported in PubChem BioAssay AID212 (DTP/NCI, 2004).
# Values joined by “and” are separate entries in the source; they are usually repeats but may differ in a detail not shown here. Equal entries are not always repeated. Inconclusive results are not listed.
# System: BDF1 mice, colon carcinoma 38 sc, T/C %
# Assay: NCI In Vivo Anticancer Drug Screen. Data for tumor model Colon Carcinoma 38 (subcutaneous) in B6D2F1 (BDF1) mice
# Details: endpoint: median tumor weight (est.), higher = larger tumour
# Summary of the method: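 Compound antitumor activity was assessed in mice carrying transplantable tumors. Survival or tumor size was recorded, and each value is the treated-group measurement divided by that of the vehicle-treated control group.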
# [1] = dose: 50.0 mg/kg/injection, schedule: Q07DX002 (ip), vehicle: Klucel (hydroxypropylcellulose) (HPC)
# [2] = dose: 100.0 mg/kg/injection, schedule: Q07DX002 (ip), vehicle: Klucel (hydroxypropylcellulose) (HPC)
# [3] = dose: 200.0 mg/kg/injection, schedule: Q07DX002 (ip), vehicle: Klucel (hydroxypropylcellulose) (HPC)
compound,measurement,setting,value
CC(=O)OCc1cc(=O)n(C)c2c3c4c(cc12)c(C)cc(=O)n4CO3,T/C,"dose: 12.5 mg/kg/injection, schedule: Q07DX003 (ip), vehicle: Klucel (hydroxypropylcellulose) (HPC)",121 % of control and 106 % of control
same,T/C,"dose: 25.0 mg/kg/injection, schedule: Q07DX003 (ip), vehicle: Klucel (hydroxypropylcellulose) (HPC)",108 % of control
same,T/C,"dose: 50.0 mg/kg/injection, schedule: Q07DX003 (ip), vehicle: Klucel (hydroxypropylcellulose) (HPC)",83 % of control
same,T/C,"dose: 200.0 mg/kg/injection, schedule: Q07DX003 (ip), vehicle: Klucel (hydroxypropylcellulose) (HPC)",94 % of control
C=Cc1cnc([N+](=O)[O-])n1C,T/C,"dose: 12.5 mg/kg/injection, schedule: Q07DX002 (ip), vehicle: Klucel (hydroxypropylcellulose) (HPC)",67 % of control and 84 % of control
same,T/C,"dose: 25.0 mg/kg/injection, schedule: Q07DX002 (ip), vehicle: Klucel (hydroxypropylcellulose) (HPC)",109 % of control and 97 % of control
same,T/C,[1],62 % of control and 69 % of control
CCN1C=C/C(=C\C=C/c2cc[n+](CC)c3ccccc23)c2ccccc21,T/C,"dose: 0.06 mg/kg/injection, schedule: Q07DX002 (ip), vehicle: saline",91 % of control
same,T/C,"dose: 0.12 mg/kg/injection, schedule: Q07DX002 (ip), vehicle: saline",120 % of control
same,T/C,"dose: 62.0 micrograms/kg/injection, schedule: Q07DX002 (ip), vehicle: saline",101 % of control
same,T/C,"dose: 125.0 micrograms/kg/injection, schedule: Q07DX002 (ip), vehicle: saline",123 % of control
same,T/C,"dose: 250.0 micrograms/kg/injection, schedule: Q07DX002 (ip), vehicle: saline",156 % of control
COC1C(OC(=O)/C=C/C=C/C=C/C=C/C(=O)O)CCC2(CO2)C1C1(C)OC1CC=C(C)C (stereo unspecified),T/C,"dose: 25.0 mg/kg/injection, schedule: Q07DX002 (ip), vehicle: suspension in saline",101 % of control
same,T/C,"dose: 50.0 mg/kg/injection, schedule: Q07DX002 (ip), vehicle: suspension in saline",208 % of control
same,T/C,"dose: 200.0 mg/kg/injection, schedule: Q07DX002 (ip), vehicle: suspension in saline",115 % of control
Clc1ccc(C2SC=Cc3ccccc32)cc1 (stereo unspecified),T/C,[1],56 % of control
same,T/C,[2],47 % of control
same,T/C,[3],57 % of control
same,T/C,"dose: 400.0 mg/kg/injection, schedule: Q07DX002 (ip), vehicle: Klucel (hydroxypropylcellulose) (HPC)",93 % of control
C=CCc1cn(C2CC(O)C(CO)O2)c(=O)[nH]c1=O (stereo unspecified),T/C,"dose: 25.0 mg/kg/injection, schedule: Q07DX002 (ip), vehicle: saline",85 % of control
same,T/C,"dose: 50.0 mg/kg/injection, schedule: Q07DX002 (ip), vehicle: saline",78 % of control
same,T/C,"dose: 100.0 mg/kg/injection, schedule: Q07DX002 (ip), vehicle: saline",62 % of control and 65 % of control
C[PH+](C)C.C[PH+](C)C.[Au],T/C,"dose: 1.25 mg/kg/injection, schedule: Q07DX002 (ip), vehicle: saline",99 % of control
same,T/C,"dose: 2.5 mg/kg/injection, schedule: Q07DX002 (ip), vehicle: saline",84 % of control
same,T/C,"dose: 5.0 mg/kg/injection, schedule: Q07DX002 (ip), vehicle: saline",87 % of control
same,T/C,"dose: 10.0 mg/kg/injection, schedule: Q07DX002 (ip), vehicle: saline",65 % of control
Nc1ccc(S(=O)(=O)Nc2cnc3c(Cl)cccc3n2)cc1,T/C,"dose: 250.0 mg/kg/injection, schedule: Q07DX002 (ip), vehicle: DMSO",82 % of control
COc1cccc2c1C(=N)c1c(O)c3c(c(O)c1C2=O)C[C@@](O)(C(C)=O)C[C@@H]3OC1CC(N)C(O)C(C)O1 (stereo partly specified),T/C,"dose: 2.25 mg/kg/injection, schedule: Q07DX002 (ip), vehicle: saline",71 % of control
same,T/C,"dose: 4.5 mg/kg/injection, schedule: Q07DX002 (ip), vehicle: saline",115 % of control
same,T/C,"dose: 9.0 mg/kg/injection, schedule: Q07DX002 (ip), vehicle: saline",99 % of control
CCC1=C[C@H]2CN(CCc3c([nH]c4ccccc34)[C@@](C(=O)OC)(c3cc4c(cc3OC)N(C)[C@H]3[C@@](O)(C(=O)OC)[C@H](OC(C)=O)[C@]5(CC)C=CCN6CC[C@]43[C@@H]65)C2)C1,T/C,"dose: 4.0 mg/kg/injection, schedule: Q07DX002 (ip), vehicle: water",75 % of control and 82 % of control
Cc1ccc(NCCN(C)C)c2c(=O)c3cc(O)ccc3sc12,T/C,[2],42 % of control and 48 % of control
same,T/C,[3],17 % of control
CC(=O)Nc1ccc(C(=O)C=O)cc1,T/C,"dose: 12.5 mg/kg/injection, schedule: Q07DX002 (ip), vehicle: saline with Tween-80",62 % of control and 78 % of control
same,T/C,"dose: 25.0 mg/kg/injection, schedule: Q07DX002 (ip), vehicle: saline with Tween-80",87 % of control and 100 % of control
same,T/C,"dose: 200.0 mg/kg/injection, schedule: Q07DX002 (ip), vehicle: saline with Tween-80",92 % of control
